Experimental data published in patent publication US9809578B2, “Pyrazolyl urea, thiourea, guanidine and cyanoguanidine compounds as trkA kinase inhibitors” (Array BioPharma Inc., priority 2012, dated 2017).

Key:
Assay type in all cases: biochemical
Details in all cases: 10 μM, ATP near Km
[1] = biological target: T1, WNK3 (Homo sapiens, UniProt Q9BYP7); test: KinaseProfiler WNK3
T1 construct: purchased Millipore, Inc. (KinaseProfiler service)
Description: (§1) The compound was run in duplicate at a concentration of ATP near the Km for each individual kinase according to Millipore's specifications.

[2] = biological target: T2, Pim-2 (Homo sapiens, UniProt Q9P1W9); test: KinaseProfiler Pim-2
T2 construct: purchased Millipore, Inc. (KinaseProfiler service)
Description: as §1

[3] = biological target: T3, PRK2 (Homo sapiens, UniProt Q16513); test: KinaseProfiler PRK2
T3 construct: purchased Millipore, Inc. (KinaseProfiler service)
Description: as §1

[4] = biological target: T4, TrkB (Homo sapiens, UniProt Q16620); test: KinaseProfiler TrkB
T4 construct: purchased Millipore, Inc. (KinaseProfiler service)
Description: as §1

[5] = biological target: T5, c-RAF (Homo sapiens, UniProt P04049, Y340D/Y341D); test: KinaseProfiler c-RAF
T5 construct: purchased Millipore, Inc. (KinaseProfiler service)
Description: as §1

[6] = biological target: T6, Met (Homo sapiens, UniProt P08581); test: KinaseProfiler Met
T6 construct: purchased Millipore, Inc. (KinaseProfiler service)
Description: as §1

[7] = biological target: T7, IKKalpha (Homo sapiens, UniProt O15111); test: KinaseProfiler IKKalpha
T7 construct: purchased Millipore, Inc. (KinaseProfiler service)
Description: as §1

[8] = biological target: T8, LKB1 (Homo sapiens, UniProt Q15831); test: KinaseProfiler LKB1
T8 construct: purchased Millipore, Inc. (KinaseProfiler service)
Description: as §1

[9] = biological target: T9, EphA3 (Homo sapiens, UniProt P29320); test: KinaseProfiler EphA3
T9 construct: purchased Millipore, Inc. (KinaseProfiler service)
Description: as §1

[10] = biological target: T10, Yes (Homo sapiens, UniProt P07947); test: KinaseProfiler Yes
T10 construct: purchased Millipore, Inc. (KinaseProfiler service)
Description: as §1

[11] = biological target: T11, EGFR (Homo sapiens, UniProt P00533); test: KinaseProfiler EGFR
T11 construct: purchased Millipore, Inc. (KinaseProfiler service)
Description: as §1

[12] = biological target: T12, IR (Homo sapiens, UniProt P06213); test: KinaseProfiler IR
T12 construct: purchased Millipore, Inc. (KinaseProfiler service)
T12 sequence (P06213 28-1382): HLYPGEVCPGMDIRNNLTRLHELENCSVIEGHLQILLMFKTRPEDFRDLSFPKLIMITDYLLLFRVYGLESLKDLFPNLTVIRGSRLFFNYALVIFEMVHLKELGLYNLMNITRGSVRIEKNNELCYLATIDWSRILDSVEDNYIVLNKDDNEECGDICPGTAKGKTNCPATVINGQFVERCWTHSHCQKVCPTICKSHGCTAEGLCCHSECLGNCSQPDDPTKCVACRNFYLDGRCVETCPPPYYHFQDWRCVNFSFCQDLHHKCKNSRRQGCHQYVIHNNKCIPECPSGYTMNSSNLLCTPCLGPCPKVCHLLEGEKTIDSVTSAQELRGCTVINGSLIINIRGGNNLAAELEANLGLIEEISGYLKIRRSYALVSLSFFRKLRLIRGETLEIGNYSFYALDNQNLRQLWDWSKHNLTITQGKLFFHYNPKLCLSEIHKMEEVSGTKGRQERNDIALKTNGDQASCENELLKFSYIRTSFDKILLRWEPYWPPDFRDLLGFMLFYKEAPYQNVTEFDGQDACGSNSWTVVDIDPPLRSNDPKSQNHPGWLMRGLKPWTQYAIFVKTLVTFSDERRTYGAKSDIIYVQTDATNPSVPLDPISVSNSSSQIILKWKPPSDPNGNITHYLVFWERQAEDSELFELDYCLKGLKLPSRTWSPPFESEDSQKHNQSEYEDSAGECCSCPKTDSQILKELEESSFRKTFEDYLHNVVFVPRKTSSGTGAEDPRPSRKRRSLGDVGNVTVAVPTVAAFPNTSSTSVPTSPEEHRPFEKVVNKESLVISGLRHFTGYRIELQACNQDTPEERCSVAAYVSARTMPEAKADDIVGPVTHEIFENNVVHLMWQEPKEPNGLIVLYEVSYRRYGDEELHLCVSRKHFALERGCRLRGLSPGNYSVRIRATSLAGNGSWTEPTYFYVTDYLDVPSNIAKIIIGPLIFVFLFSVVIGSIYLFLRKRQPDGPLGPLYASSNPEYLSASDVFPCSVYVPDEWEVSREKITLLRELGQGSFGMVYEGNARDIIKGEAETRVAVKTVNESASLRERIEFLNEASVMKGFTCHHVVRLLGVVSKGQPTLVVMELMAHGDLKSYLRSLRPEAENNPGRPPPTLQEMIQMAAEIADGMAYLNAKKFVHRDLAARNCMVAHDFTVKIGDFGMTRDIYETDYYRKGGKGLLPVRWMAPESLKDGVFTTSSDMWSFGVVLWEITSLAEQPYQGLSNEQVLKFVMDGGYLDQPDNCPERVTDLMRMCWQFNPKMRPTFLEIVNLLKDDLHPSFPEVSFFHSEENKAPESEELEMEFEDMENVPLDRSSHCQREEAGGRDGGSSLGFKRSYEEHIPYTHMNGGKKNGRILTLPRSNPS
Description: as §1

[13] = biological target: T13, EphA8 (Homo sapiens, UniProt P29322); test: KinaseProfiler EphA8
T13 construct: purchased Millipore, Inc. (KinaseProfiler service)
Description: as §1

[14] = biological target: T14, CDK1/cyclinB (Homo sapiens, UniProt P06493); test: KinaseProfiler CDK1/cyclinB
T14 construct: purchased Millipore (KinaseProfiler service)
T14 sequence (P06493 whole entry): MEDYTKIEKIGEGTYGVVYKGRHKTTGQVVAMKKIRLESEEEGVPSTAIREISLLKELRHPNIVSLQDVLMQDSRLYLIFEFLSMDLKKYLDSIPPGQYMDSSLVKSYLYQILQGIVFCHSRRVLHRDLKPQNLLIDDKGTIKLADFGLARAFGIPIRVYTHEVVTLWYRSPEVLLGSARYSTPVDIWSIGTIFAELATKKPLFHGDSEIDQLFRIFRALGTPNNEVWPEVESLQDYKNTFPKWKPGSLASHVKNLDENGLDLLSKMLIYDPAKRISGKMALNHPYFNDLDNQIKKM
T14 sequence (P14635 whole entry partner): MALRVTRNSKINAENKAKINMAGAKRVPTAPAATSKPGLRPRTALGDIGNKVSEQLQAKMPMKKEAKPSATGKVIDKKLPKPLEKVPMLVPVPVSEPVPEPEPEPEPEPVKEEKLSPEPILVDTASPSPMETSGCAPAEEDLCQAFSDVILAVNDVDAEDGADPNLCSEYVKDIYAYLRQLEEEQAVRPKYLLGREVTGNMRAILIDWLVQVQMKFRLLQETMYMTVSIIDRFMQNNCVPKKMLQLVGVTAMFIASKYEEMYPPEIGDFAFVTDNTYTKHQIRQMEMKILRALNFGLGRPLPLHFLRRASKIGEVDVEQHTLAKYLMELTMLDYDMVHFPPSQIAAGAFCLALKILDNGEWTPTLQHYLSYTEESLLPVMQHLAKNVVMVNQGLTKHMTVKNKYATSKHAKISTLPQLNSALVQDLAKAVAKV
Description: as §1

[15] = biological target: T15, PKCepsilon (Homo sapiens, UniProt Q02156); test: KinaseProfiler PKCepsilon
T15 construct: purchased Millipore, Inc. (KinaseProfiler service)
T15 sequence (Q02156 whole entry): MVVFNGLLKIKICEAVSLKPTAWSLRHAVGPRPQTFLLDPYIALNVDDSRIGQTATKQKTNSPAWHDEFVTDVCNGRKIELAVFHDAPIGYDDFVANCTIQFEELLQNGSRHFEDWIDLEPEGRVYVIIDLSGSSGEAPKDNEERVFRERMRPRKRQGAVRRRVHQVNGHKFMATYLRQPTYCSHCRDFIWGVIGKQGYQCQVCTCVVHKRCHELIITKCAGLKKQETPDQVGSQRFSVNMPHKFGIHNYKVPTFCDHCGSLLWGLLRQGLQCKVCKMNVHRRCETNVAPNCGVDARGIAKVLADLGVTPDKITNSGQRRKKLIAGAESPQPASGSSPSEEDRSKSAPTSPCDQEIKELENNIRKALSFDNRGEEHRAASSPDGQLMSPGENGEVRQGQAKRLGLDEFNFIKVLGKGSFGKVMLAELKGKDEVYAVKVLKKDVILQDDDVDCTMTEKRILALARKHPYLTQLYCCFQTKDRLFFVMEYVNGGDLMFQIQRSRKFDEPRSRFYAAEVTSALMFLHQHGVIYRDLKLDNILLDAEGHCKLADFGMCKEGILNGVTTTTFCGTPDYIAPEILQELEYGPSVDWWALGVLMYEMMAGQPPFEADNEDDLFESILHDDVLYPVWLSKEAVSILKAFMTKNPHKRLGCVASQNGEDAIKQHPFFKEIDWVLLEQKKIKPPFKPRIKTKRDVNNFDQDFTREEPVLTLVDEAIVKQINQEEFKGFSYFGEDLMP
Description: as §1

[16] = biological target: T16, JNK3 (Homo sapiens, UniProt P53779); test: KinaseProfiler JNK3
T16 construct: purchased Millipore, Inc. (KinaseProfiler service)
T16 sequence (P53779 whole entry): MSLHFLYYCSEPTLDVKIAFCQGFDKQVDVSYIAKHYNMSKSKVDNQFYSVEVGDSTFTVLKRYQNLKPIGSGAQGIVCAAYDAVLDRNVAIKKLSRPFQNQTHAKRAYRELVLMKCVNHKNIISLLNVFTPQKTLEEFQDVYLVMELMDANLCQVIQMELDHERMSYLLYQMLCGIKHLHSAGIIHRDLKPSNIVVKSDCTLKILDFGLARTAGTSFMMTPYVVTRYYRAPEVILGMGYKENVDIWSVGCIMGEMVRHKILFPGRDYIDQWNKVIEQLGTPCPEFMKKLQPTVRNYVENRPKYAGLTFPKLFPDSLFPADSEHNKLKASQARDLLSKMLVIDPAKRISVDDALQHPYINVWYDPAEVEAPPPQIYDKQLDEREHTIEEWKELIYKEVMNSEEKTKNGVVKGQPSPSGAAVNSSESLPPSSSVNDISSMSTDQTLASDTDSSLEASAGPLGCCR
Description: as §1

[17] = biological target: T17, BLK_m (Mus musculus, UniProt P16277); test: KinaseProfiler BLK_m
T17 construct: purchased Millipore (KinaseProfiler service)
T17 sequence (P16277 whole entry): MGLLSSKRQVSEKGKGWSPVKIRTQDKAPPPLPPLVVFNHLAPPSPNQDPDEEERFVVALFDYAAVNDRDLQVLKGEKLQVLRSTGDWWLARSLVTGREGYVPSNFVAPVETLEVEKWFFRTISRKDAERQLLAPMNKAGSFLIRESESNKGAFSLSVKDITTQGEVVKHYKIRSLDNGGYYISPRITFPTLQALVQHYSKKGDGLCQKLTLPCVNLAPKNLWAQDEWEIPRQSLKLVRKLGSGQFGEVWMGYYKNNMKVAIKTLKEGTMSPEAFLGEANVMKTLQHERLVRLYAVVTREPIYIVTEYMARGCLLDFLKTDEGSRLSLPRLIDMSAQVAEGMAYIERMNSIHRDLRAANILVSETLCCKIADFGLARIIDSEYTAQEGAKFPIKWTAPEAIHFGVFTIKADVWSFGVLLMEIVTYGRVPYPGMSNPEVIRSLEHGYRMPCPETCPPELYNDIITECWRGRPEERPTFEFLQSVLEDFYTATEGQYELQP
Description: as §1

[18] = biological target: T18, Hck (Homo sapiens, UniProt P08631); test: KinaseProfiler Hck
T18 construct: purchased Millipore, Inc. (KinaseProfiler service)
Description: as §1

[19] = biological target: T19, Syk (Homo sapiens, UniProt P43405); test: KinaseProfiler Syk
T19 construct: purchased Millipore, Inc. (KinaseProfiler service)
Description: as §1

[20] = biological target: T20, Rsk4 (Homo sapiens, UniProt Q9UK32); test: KinaseProfiler Rsk4
T20 construct: purchased Millipore, Inc. (KinaseProfiler service)
Description: as §1

[21] = biological target: T21, ULK3 (Homo sapiens, UniProt Q6PHR2); test: KinaseProfiler ULK3
T21 construct: purchased Millipore, Inc. (KinaseProfiler service)
Description: as §1

[22] = biological target: T22, Rsk1 (Homo sapiens, UniProt Q15418); test: KinaseProfiler Rsk1
T22 construct: purchased Millipore, Inc. (KinaseProfiler service)
Description: as §1

[23] = biological target: T23, MuSK (Homo sapiens, UniProt O15146); test: KinaseProfiler MuSK
T23 construct: purchased Millipore, Inc. (KinaseProfiler service)
Description: as §1

[24] = biological target: T24, CAMK2d (Homo sapiens, UniProt Q13557); test: KinaseProfiler CAMK2d
T24 construct: purchased Millipore (KinaseProfiler service)
Description: as §1

[25] = biological target: T25, NEK3 (Homo sapiens, UniProt P51956); test: KinaseProfiler NEK3
T25 construct: purchased Millipore, Inc. (KinaseProfiler service)
Description: as §1

[26] = biological target: T26, ErbB4 (Homo sapiens, UniProt Q15303); test: KinaseProfiler ErbB4
T26 construct: purchased Millipore, Inc. (KinaseProfiler service)
Description: as §1

[27] = biological target: T27, CAMK2b (Homo sapiens, UniProt Q13554); test: KinaseProfiler CAMK2b
T27 construct: purchased Millipore (KinaseProfiler service)
Description: as §1

[28] = biological target: T28, ERK1 (Homo sapiens, UniProt P27361); test: KinaseProfiler ERK1
T28 construct: purchased Millipore, Inc. (KinaseProfiler service)
Description: as §1

[29] = biological target: T29, PKCgamma (Homo sapiens, UniProt P05129); test: KinaseProfiler PKCgamma
T29 construct: purchased Millipore, Inc. (KinaseProfiler service)
Description: as §1

[30] = biological target: T30, eEF-2K (Homo sapiens, UniProt O00418); test: KinaseProfiler eEF-2K
T30 construct: purchased Millipore, Inc. (KinaseProfiler service)
Description: as §1

[31] = biological target: T31, DMPK (Homo sapiens, UniProt Q09013); test: KinaseProfiler DMPK
T31 construct: purchased Millipore, Inc. (KinaseProfiler service)
Description: as §1

[32] = biological target: T32, p38beta (Homo sapiens, UniProt Q15759); test: KinaseProfiler p38beta
T32 construct: purchased Millipore, Inc. (KinaseProfiler service)
Description: as §1

[33] = biological target: T33, PKCzeta (Homo sapiens, UniProt Q05513); test: KinaseProfiler PKCzeta
T33 construct: purchased Millipore, Inc. (KinaseProfiler service)
Description: as §1

[34] = biological target: T34, CAMK1d (Homo sapiens, UniProt Q8IU85); test: KinaseProfiler CAMK1d
T34 construct: purchased Millipore (KinaseProfiler service)
Description: as §1

[35] = biological target: T35, TAO1 (Homo sapiens, UniProt Q7L7X3); test: KinaseProfiler TAO1
T35 construct: purchased Millipore, Inc. (KinaseProfiler service)
Description: as §1

[36] = biological target: T36, Pim-1 (Homo sapiens, UniProt P11309); test: KinaseProfiler Pim-1
T36 construct: purchased Millipore, Inc. (KinaseProfiler service)
T36 sequence (P11309 whole entry): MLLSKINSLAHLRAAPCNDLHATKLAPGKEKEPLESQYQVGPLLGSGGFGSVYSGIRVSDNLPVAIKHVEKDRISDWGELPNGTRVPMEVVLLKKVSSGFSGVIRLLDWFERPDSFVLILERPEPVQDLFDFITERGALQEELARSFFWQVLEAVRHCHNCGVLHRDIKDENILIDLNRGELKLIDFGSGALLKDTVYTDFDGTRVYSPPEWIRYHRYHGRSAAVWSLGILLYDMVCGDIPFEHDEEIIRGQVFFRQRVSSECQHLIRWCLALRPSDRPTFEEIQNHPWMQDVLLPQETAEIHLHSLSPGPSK
Description: as §1

[37] = biological target: T37, TAO3 (Homo sapiens, UniProt Q9H2K8); test: KinaseProfiler TAO3
T37 construct: purchased Millipore, Inc. (KinaseProfiler service)
T37 sequence (Q9H2K8 whole entry): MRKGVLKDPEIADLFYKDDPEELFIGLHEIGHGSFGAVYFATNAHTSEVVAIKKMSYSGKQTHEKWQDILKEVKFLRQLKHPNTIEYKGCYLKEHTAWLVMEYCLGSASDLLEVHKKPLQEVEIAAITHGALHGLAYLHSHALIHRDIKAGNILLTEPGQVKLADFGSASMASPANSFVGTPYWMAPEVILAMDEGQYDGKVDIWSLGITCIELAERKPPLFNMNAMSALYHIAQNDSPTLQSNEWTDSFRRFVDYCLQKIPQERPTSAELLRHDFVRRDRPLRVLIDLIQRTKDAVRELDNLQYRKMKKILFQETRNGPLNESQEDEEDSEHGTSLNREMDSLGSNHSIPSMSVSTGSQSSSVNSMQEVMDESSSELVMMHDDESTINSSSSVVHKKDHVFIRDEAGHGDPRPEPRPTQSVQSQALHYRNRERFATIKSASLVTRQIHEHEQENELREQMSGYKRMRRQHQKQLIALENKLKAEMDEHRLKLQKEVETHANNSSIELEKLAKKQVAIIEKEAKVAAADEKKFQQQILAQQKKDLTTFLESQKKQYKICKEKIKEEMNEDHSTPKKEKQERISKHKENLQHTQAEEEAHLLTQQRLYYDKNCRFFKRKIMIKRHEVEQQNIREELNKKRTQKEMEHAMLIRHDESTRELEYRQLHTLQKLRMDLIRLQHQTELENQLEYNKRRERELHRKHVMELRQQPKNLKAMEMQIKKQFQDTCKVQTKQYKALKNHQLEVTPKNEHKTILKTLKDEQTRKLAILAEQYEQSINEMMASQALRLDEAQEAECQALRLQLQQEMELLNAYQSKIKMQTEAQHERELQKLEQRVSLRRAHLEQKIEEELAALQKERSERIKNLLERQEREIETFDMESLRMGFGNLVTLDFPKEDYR
Description: as §1

[38] = biological target: T38, Txk (Homo sapiens, UniProt P42681); test: KinaseProfiler Txk
T38 construct: purchased Millipore, Inc. (KinaseProfiler service)
Description: as §1

[39] = biological target: T39, PKCiota (Homo sapiens, UniProt P41743); test: KinaseProfiler PKCiota
T39 construct: purchased Millipore, Inc. (KinaseProfiler service)
Description: as §1

[40] = biological target: T40, NEK2 (Homo sapiens, UniProt P51955); test: KinaseProfiler NEK2
T40 construct: purchased Millipore, Inc. (KinaseProfiler service)
Description: as §1

[41] = biological target: T41, PKCeta (Homo sapiens, UniProt P24723); test: KinaseProfiler PKCeta
T41 construct: purchased Millipore, Inc. (KinaseProfiler service)
Description: as §1

[42] = biological target: T42, EphB2 (Homo sapiens, UniProt P29323); test: KinaseProfiler EphB2
T42 construct: purchased Millipore, Inc. (KinaseProfiler service)
Description: as §1

[43] = biological target: T43, NLK (Homo sapiens, UniProt Q9UBE8); test: KinaseProfiler NLK
T43 construct: purchased Millipore, Inc. (KinaseProfiler service)
Description: as §1

## Cc1c(-c2cnn(C)c2)nn(-c2ccccc2)c1NC(=O)Nc1cc(C(F)(F)F)nn1-c1ccccc1 [Example 3, 1-(1′,4-dimethyl-1-phenyl-1H,1′H-[3,4′-bipyrazol]-5-yl)-3-(1-phenyl-3-(trifluoromethyl)-1H-pyrazol-5-yl)urea]
[1]
  Avg POC: 108 POC
[2]
  Avg POC: 117.5 POC
[3]
  Avg POC: 106.5 POC
[4]
  Avg POC: 95 POC
[5]
  Avg POC: 94.5 POC
[6]
  Avg POC: 129 POC
[7]
  Avg POC: 127 POC
[8]
  Avg POC: 95.5 POC
[9]
  Avg POC: 128.5 POC
[10]
  Avg POC: 114 POC
[11]
  Avg POC: 97.5 POC
[12]
  Avg POC: 90 POC
[13]
  Avg POC: 122 POC
[14]
  Avg POC: 102.5 POC
[15]
  Avg POC: 98 POC
[16]
  Avg POC: 124.5 POC
[17]
  Avg POC: 108.5 POC
[18]
  Avg POC: 110.5 POC
[19]
  Avg POC: 101 POC
[20]
  Avg POC: 99 POC
[21]
  Avg POC: 90.5 POC
[22]
  Avg POC: 123 POC
[23]
  Avg POC: 82.5 POC
[24]
  Avg POC: 131 POC
[25]
  Avg POC: 105.5 POC
[26]
  Avg POC: 126 POC
[27]
  Avg POC: 96.5 POC
[28]
  Avg POC: 111.5 POC
[29]
  Avg POC: 100 POC
[30]
  Avg POC: 148.5 POC
[31]
  Avg POC: 105 POC
[32]
  Avg POC: 102 POC
[33]
  Avg POC: 103 POC
[34]
  Avg POC: 138 POC
[35]
  Avg POC: 119 POC
[36]
  Avg POC: 119.5 POC
[37]
  Avg POC: 94 POC
[38]
  Avg POC: 139.5 POC
[39]
  Avg POC: 69.5 POC
[40]
  Avg POC: 125.5 POC
[41]
  Avg POC: 94.5 POC
[42]
  Avg POC: 118.5 POC
[43]
  Avg POC: 116.5 POC
